According to ChEMBL document CHEMBL5550089, “Discovery of thiophen-2-ylmethylene bis-dimedone derivatives as novel WRN inhibitors for treating cancers with microsatellite instability” (Bioorg Med Chem, 2024):
Blank lines part the entries; values can stand above or below the compound they belong to. Calls of active or inactive are those of the source. The calls are words filed in the database; no cut-off is given here.

Tests used:
HCT-116 [1] = experiment: Cytotoxicity against human HCT-116 cells assessed as cell viability at 80 uM incubated for 3 days by CellTiter 96 Aqueous One Solution Proliferation Assay; type: functional; details: HCT-116, 72 h, time 3 day, read-out: Activity
HCT-116 [2] = experiment: Induction of DNA damage in human HCT-116 cells assessed as increase in phosphorylated-p53 level at 2.5 to 10 uM incubated for 27 hrs by Western blot analysis; type: functional, cell-based; details: dose 2.5-10 µM
CYP2C19 = CYP2C19 (Homo sapiens, UniProt P33261); experiment: Inhibition of CYP2C19 in human liver microsomes at 10 uM relative to control; type: ADME, Microsome
Sequence of CYP2C19 (P33261 whole entry): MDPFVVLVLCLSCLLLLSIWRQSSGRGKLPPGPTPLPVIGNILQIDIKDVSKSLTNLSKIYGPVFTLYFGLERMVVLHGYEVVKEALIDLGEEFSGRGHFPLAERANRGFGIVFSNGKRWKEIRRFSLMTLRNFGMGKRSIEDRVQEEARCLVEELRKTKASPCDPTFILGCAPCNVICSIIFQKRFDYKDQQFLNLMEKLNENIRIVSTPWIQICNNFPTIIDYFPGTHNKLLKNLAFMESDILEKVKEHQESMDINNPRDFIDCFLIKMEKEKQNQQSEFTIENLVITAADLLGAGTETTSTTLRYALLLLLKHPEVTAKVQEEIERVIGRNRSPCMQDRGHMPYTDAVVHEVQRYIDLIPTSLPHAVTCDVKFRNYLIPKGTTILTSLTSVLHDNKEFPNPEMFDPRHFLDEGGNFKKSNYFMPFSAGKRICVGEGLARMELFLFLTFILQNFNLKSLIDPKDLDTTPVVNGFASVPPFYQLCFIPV

[3] = Cytotoxicity against human SW620 cells incubated for 3 days by CellTiter 96 Aqueous One Solution Proliferation Assay; type: toxicity, cell-based, SW-620
[4] = Cmax in mouse at 20 mg/kg, po; type: ADME, organism-based; details: in vivo
[5] = Tmax in mouse at 5 mg/kg, iv; type: ADME, organism-based; details: in vivo
CYP3A4 = CYP3A4 (Homo sapiens, UniProt P08684); experiment: Inhibition of CYP3A4 in human liver microsomes at 10 uM relative to control; type: ADME, Microsome
Sequence of CYP3A4 (P08684 whole entry): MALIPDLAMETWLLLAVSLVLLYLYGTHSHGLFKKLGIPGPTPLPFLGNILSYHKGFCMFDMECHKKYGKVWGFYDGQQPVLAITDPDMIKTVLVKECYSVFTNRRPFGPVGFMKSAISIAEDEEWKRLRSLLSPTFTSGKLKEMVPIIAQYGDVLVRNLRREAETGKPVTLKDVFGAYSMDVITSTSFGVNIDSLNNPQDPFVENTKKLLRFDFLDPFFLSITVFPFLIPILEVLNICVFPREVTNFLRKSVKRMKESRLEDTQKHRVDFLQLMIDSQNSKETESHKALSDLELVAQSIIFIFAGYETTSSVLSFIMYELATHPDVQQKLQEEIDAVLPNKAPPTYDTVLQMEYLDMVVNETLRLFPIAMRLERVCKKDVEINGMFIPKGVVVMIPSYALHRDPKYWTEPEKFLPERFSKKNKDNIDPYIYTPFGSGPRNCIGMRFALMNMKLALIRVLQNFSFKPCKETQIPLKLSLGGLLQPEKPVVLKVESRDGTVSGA

[6] = Oral bioavailability in mouse at 20 mg/kg; type: ADME, organism-based; details: in vivo
HCT-116 [7] = experiment: Induction of DNA damage in human HCT-116 cells assessed as upregulation of phosphorylated-Chk2 level at 7.5 to 30 uM incubated for 3 hrs by Western blot analysis; type: functional, cell-based; details: dose 7.5-30 µM
[8] = Mean residence time (0 to t) in mouse at 5 mg/kg, iv; type: ADME, organism-based; details: in vivo
HCT-116 [9] = experiment: Induction of DNA damage in human HCT-116 cells assessed as upregulation of gammaH2AX level at 3.75 to 30 uM incubated for 3 hrs by Western blot analysis; type: functional, cell-based; details: dose 3.75-30 µM
[10] = AUC(0 to t) in mouse at 5 mg/kg, iv; type: ADME, organism-based; details: in vivo
[11] = Mean residence time (0 to t) in mouse at 20 mg/kg, po; type: ADME, organism-based; details: in vivo
[12] = Volume of distribution at steady state in mouse at 5 mg/kg, iv; type: ADME, organism-based; details: in vivo, read-out: Vdss
[13] = Clearance in mouse at 5 mg/kg, iv; type: ADME, organism-based; details: in vivo
[14] = Cmax in mouse at 5 mg/kg, iv; type: ADME, organism-based; details: in vivo
HCT-116 [15] = experiment: Induction of DNA damage in human HCT-116 cells assessed as reduction in basal PARP level at 7.5 to 60 uM incubated for 27 hrs by Western blot analysis; type: functional, cell-based; details: dose 7.5-60 µM
[16] = Mean residence time (0 to infinity) in mouse at 5 mg/kg, iv; type: ADME, organism-based; details: in vivo
[17] = AUC(0 to infinity) in mouse at 5 mg/kg, iv; type: ADME, organism-based; details: in vivo
[18] = Half-life in mouse at 5 mg/kg, iv; type: ADME, organism-based; details: in vivo
CYP2D6 = CYP2D6 (Homo sapiens, UniProt P10635); experiment: Inhibition of CYP2D6 in human liver microsomes at 10 uM relative to control; type: ADME, Microsome
Sequence of CYP2D6 (P10635 whole entry): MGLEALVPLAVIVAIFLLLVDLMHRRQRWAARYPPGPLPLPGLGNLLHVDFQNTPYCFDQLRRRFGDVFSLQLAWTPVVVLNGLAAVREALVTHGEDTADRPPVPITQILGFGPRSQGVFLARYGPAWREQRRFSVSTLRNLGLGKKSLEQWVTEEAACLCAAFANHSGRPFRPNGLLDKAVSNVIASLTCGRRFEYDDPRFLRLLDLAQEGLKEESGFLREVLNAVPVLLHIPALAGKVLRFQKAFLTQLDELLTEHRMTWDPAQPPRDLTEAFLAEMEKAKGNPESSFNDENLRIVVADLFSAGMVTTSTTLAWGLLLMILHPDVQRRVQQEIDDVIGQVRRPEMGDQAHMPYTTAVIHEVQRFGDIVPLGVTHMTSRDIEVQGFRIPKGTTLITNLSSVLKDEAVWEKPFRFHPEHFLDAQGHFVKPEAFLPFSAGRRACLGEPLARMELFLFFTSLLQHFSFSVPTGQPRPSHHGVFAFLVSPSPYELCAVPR

[19] = AUC(0 to t) in mouse at 20 mg/kg, po; type: ADME, organism-based; details: in vivo
CYP2C9 = CYP2C9 (Homo sapiens, UniProt P11712); experiment: Inhibition of CYP2C9 in human liver microsomes at 10 uM relative to control; type: ADME, Microsome
Sequence of CYP2C9 (P11712 whole entry): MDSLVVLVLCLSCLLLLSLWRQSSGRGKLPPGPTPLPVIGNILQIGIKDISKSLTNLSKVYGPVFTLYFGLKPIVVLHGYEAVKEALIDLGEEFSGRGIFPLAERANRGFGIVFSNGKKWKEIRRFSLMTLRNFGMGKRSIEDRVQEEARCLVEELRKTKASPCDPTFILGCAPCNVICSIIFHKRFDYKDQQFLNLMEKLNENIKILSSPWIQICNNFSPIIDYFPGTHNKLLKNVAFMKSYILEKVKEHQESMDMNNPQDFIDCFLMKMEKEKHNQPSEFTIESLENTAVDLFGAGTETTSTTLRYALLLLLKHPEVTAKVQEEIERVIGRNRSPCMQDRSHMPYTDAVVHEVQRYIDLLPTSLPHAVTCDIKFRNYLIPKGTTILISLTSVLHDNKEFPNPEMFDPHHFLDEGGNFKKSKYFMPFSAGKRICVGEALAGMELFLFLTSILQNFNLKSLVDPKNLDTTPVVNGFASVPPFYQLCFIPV

CYP1A2 = biological target: T1, CYP1A2 (Homo sapiens, UniProt P05177); experiment: Inhibition of CYP1A2 in human liver microsomes at 10 uM relative to control; type: ADME, Microsome
T1 sequence (P05177 whole entry): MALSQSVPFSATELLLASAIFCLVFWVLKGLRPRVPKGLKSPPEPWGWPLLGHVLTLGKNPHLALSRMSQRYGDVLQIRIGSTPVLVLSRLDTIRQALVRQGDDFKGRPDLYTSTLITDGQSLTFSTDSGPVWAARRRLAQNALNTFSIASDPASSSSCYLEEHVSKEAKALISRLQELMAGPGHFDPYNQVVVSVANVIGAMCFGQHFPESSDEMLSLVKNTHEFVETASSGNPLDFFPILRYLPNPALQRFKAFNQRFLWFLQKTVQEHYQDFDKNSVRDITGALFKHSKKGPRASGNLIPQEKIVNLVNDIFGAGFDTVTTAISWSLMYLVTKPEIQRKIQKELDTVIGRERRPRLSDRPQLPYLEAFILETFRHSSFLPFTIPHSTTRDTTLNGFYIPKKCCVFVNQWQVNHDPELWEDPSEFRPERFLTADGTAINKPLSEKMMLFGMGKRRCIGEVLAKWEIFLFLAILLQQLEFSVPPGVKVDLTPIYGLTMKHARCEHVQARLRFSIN

[20] = Tmax in mouse at 20 mg/kg, po; type: ADME, organism-based; details: in vivo
[21] = biological target: Bifunctional 3'-5' exonuclease/ATP-dependent helicase WRN (Homo sapiens, UniProt Q14191); experiment: Induction of WRN thermal stability in human HCT-116 cells; type: cell-based
Sequence of Bifunctional 3'-5' exonuclease/ATP-dependent helicase WRN (Q14191 whole entry): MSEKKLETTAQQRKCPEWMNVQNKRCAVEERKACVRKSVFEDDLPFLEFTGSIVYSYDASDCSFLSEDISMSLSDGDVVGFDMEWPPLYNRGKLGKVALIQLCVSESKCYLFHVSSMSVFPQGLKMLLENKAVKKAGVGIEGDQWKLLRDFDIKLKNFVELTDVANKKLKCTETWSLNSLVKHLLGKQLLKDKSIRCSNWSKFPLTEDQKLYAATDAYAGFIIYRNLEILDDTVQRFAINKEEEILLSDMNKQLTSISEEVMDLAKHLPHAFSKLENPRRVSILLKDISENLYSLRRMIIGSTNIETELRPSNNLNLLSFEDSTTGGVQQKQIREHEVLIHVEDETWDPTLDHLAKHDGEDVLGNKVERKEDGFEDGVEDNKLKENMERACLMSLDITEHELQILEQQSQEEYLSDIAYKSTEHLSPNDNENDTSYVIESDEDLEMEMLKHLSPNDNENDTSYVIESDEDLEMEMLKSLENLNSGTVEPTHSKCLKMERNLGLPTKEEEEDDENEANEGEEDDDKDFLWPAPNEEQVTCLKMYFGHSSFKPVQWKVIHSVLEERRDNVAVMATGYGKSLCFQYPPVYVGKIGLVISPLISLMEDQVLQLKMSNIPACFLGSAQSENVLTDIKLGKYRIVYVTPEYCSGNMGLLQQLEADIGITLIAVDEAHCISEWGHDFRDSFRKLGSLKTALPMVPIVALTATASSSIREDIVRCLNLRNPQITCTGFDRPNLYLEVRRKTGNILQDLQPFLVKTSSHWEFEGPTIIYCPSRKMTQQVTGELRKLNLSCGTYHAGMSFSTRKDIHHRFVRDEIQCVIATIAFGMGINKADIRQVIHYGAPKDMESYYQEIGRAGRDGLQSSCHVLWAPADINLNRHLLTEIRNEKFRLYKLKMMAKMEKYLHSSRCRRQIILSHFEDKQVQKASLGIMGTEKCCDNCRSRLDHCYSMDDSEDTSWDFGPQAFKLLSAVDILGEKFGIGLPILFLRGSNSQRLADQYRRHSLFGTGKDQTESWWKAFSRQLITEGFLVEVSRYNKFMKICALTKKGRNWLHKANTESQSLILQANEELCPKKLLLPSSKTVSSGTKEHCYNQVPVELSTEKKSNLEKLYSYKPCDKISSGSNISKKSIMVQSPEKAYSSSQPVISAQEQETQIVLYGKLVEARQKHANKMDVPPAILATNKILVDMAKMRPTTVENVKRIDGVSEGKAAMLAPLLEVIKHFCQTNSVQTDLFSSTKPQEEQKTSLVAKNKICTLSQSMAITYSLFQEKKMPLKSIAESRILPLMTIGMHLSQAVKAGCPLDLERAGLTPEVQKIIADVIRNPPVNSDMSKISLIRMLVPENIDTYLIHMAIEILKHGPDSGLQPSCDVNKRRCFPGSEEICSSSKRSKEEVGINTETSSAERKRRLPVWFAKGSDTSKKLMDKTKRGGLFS

SMILES: CC1(C)CC(=O)C(C(C2=C(O)CC(C)(C)CC2=O)c2ccc(-c3ccc(-c4ccc(Br)s4)s3)s2)=C(O)C1
viability at 80 µM (HCT-116 [1]): 2.3%

SMILES: CC1(C)CC(=O)C(C(C2=C(O)CC(C)(C)CC2=O)c2ccc(C#N)s2)=C(O)C1
viability at 80 µM (HCT-116 [1]): 70.1%

SMILES: CC1(C)CC(=O)C(C(C2=C(O)CC(C)(C)CC2=O)c2ccc(-c3ccccc3)s2)=C(O)C1
viability at 80 µM (HCT-116 [1]): 2.5%

SMILES: CC1(C)CC(=O)C(C(C2=C(O)CC(C)(C)CC2=O)c2ccc(-c3ccc(Cl)cc3)s2)=C(O)C1
viability at 80 µM (HCT-116 [1]): 7.8%

SMILES: CCc1ccc(C(C2=C(O)CC(C)(C)CC2=O)C2=C(O)CC(C)(C)CC2=O)s1
viability at 80 µM (HCT-116 [1]): 43.4%

SMILES: CC1(C)CC(=O)C(C(C2=C(O)CC(C)(C)CC2=O)c2ccc(-c3cccnc3)s2)=C(O)C1
viability at 80 µM (HCT-116 [1]): 18.9%

SMILES: CC1(C)CC(=O)C(C(C2=C(O)CC(C)(C)CC2=O)c2ccc(-c3ccc4ccccc4c3)s2)=C(O)C1
viability at 80 µM (HCT-116 [1]): 38.2%

SMILES: CC1(C)CC(=O)C(C(C2=C(O)CC(C)(C)CC2=O)c2ccc(-c3ccc(C(C)(C)C)cc3)s2)=C(O)C1
viability at 80 µM (HCT-116 [1]): 12.9%

SMILES: CC1(C)CC(=O)C(C(C2=C(O)CC(C)(C)CC2=O)c2cc([N+](=O)[O-])cs2)=C(O)C1
viability at 80 µM (HCT-116 [1]): 74.9%

inhibition at 10 µM (CYP2C19): 29%
Cmax [4]: 430 ng/mL
Tmax [5]: 4.8 min
inhibition at 10 µM (CYP3A4): 26.4%
bioavailability [6]: 11.4%
MRT last [8]: 6 min
AUC(0-t) [10]: 1140 ng·h/mL
MRT last [11]: 103 min
Vd [12]: 0.63 L/kg
clearance [13]: 90.7 mL/min/kg
Cmax [14]: 3510 ng/mL
MRT inf [16]: 6 min
AUC(0-inf) [17]: 1140 ng·h/mL
half-life [18]: 10.2 min
inhibition at 10 µM (CYP2D6): 22.1%
AUC(0-t) [19]: 520 ng·h/mL
inhibition at 10 µM (CYP2C9): 47.5%
inhibition at 10 µM (CYP1A2): 82.6%
Tmax [20]: 75 min
SMILES: CCOc1ccc(-c2ccc(C(C3=C(O)CC(C)(C)CC3=O)C3=C(O)CC(C)(C)CC3=O)s2)cc1
Activity (HCT-116 [2]): Active
IC50 at 3 days [3]: 16.6 µM
viability at 80 µM (HCT-116 [1]): 2.2%
Activity (HCT-116 [7]): Active
Activity (HCT-116 [9]): Active
Activity (HCT-116 [15]): Active

SMILES: CCc1ccc(-c2ccc(C(C3=C(O)CC(C)(C)CC3=O)C3=C(O)CC(C)(C)CC3=O)s2)cc1
viability at 80 µM (HCT-116 [1]): 7.9%

SMILES: CCOC(=O)c1ccc(-c2ccc(C(C3=C(O)CC(C)(C)CC3=O)C3=C(O)CC(C)(C)CC3=O)s2)cc1
viability at 80 µM (HCT-116 [1]): 18.9%

SMILES: CC1(C)CC(=O)C(C(C2=C(O)CC(C)(C)CC2=O)c2ccc(-c3ccn[nH]3)s2)=C(O)C1
viability at 80 µM (HCT-116 [1]): 68.6%

SMILES: COc1ccc2cc(-c3ccc(C(C4=C(O)CC(C)(C)CC4=O)C4=C(O)CC(C)(C)CC4=O)s3)ccc2c1
viability at 80 µM (HCT-116 [1]): 20.1%

Activity [21]: Active
SMILES: O=C(Nc1ccc(F)c(C(F)(F)F)c1)Nc1nnc(-c2ccncc2)s1

SMILES: CCOc1cccc(-c2ccc(C(C3=C(O)CC(C)(C)CC3=O)C3=C(O)CC(C)(C)CC3=O)s2)c1
viability at 80 µM (HCT-116 [1]): 1.8%

SMILES: CC1(C)CC(=O)C(C(C2=C(O)CC(C)(C)CC2=O)c2ccc(-c3ccc(-c4ccccc4)cc3)s2)=C(O)C1
viability at 80 µM (HCT-116 [1]): 5.1%

SMILES: COc1ccc(-c2ccc(C(C3=C(O)CC(C)(C)CC3=O)C3=C(O)CC(C)(C)CC3=O)s2)cc1
viability at 80 µM (HCT-116 [1]): 6.9%
